Measurements from PubChem BioAssay (NCI).
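Tested at 5 concentrations; 48 h exposure; 96-well plates; endpoints linearly interpolated, else capped at highest concentration. TGI: concentration producing complete growth inhibition.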

Tests used:
Test in all cases: NCI tumour cell line growth inhibition, 48 h
A498 renal = system: A498 renal
A549 NSCLC = system: A549 NSCLC
BT-549 breast = system: BT-549 breast
CAKI-1 renal = system: CAKI-1 renal
COLO 205 colon = system: COLO 205 colon
DU-145 prostate = system: DU-145 prostate
HCC-2998 colon = system: HCC-2998 colon
HOP-92 NSCLC = system: HOP-92 NSCLC
HT29 colon = system: HT29 colon
K-562 leukemia = system: K-562 leukemia
KM12 colon = system: KM12 colon
MDA-N = system: MDA-N
NCI-H460 lung = system: NCI-H460 lung
OVCAR-4 ovarian = system: OVCAR-4 ovarian
PC-3 prostate = system: PC-3 prostate
SF-295 CNS = system: SF-295 CNS
SK-MEL-2 melanoma = system: SK-MEL-2 melanoma
SK-MEL-28 melanoma = system: SK-MEL-28 melanoma
SK-MEL-5 melanoma = system: SK-MEL-5 melanoma
SK-OV-3 ovarian = system: SK-OV-3 ovarian

Row | SMILES | TGI (A498 renal) [µM] | TGI (A549 NSCLC) [µM] | TGI (BT-549 breast) [µM] | TGI (CAKI-1 renal) [µM] | TGI (COLO 205 colon) [µM] | TGI (DU-145 prostate) [µM] | TGI (HCC-2998 colon) [µM] | TGI (HOP-92 NSCLC) [µM] | TGI (HT29 colon) [µM] | TGI (K-562 leukemia) [µM] | TGI (KM12 colon) [µM] | TGI (MDA-N) [µM] | TGI (NCI-H460 lung) [µM] | TGI (OVCAR-4 ovarian) [µM] | TGI (PC-3 prostate) [µM] | TGI (SF-295 CNS) [µM] | TGI (SK-MEL-2 melanoma) [µM] | TGI (SK-MEL-28 melanoma) [µM] | TGI (SK-MEL-5 melanoma) [µM] | TGI (SK-OV-3 ovarian) [µM]
1 | COC(=O)[C@]12CCC(C)(C)C[C@H]1C1=CC[C@@H]3[C@@]4(C)CC[C@H](OC5OC(CO)C(O)C(O)C5OC5OC(CO)C(O)C(O)C5O)C(C)(C)[C@@H]4CC[C@@]3(C)[C@]1(C)CC2 (stereo not given in full) | 23.5 | 22.2 | 35.8 | 21 | 10.4 | 24.5 | 37.9 | 13 | 22.1 | 25.4 | 26.9 | 18.4 | 30.2 | 15.6 | 15.3 | 27.2 | 23.9 | 12.3 | 29.3 | 36.1
2 | COC(=O)[C@@H]1C2OC(C)(C)OC2CN1C(=O)OCc1ccccc1 (stereo not given in full) | > 100 | > 100 | > 100 | > 100 | > 100 | > 100 | > 100 | > 100 | > 100 | > 100 | > 100 | > 100 | > 100 | > 100 | > 100 | > 100 | > 100 | > 100 | > 100 | > 100
3 | COc1ccc(C2CC(c3ccc4ccccc4c3O)=NN2C(C)=O)cc1OC (stereo not given) | > 100 | > 100 | > 100 | > 100 | > 100 | > 100 | > 100 | > 100 | > 100 | > 100 | > 100 | > 100 | > 100 | > 100 | > 100 | > 100 | > 100 | > 100 | > 100 | > 100
4 | O=C1CSC(c2ccc(Cl)cc2)N1c1ccc(-c2ccc(-n3c(-c4ccccc4)nc4ccccc4c3=O)cc2)cc1 (stereo not given) | > 100 | > 100 | > 100 | > 100 | > 100 | > 100 | > 100 | 97.9 | 41.5 | > 100 | > 100 | > 100 | > 100 | 56.8 | > 100 | > 100 | > 100 | > 100 | > 100 | > 100
